Test [1] concerns the target T1, Histone-lysine N-methyltransferase EHMT1 (Homo sapiens) (UniProt Q9H9B1).
T1 sequence (whole entry): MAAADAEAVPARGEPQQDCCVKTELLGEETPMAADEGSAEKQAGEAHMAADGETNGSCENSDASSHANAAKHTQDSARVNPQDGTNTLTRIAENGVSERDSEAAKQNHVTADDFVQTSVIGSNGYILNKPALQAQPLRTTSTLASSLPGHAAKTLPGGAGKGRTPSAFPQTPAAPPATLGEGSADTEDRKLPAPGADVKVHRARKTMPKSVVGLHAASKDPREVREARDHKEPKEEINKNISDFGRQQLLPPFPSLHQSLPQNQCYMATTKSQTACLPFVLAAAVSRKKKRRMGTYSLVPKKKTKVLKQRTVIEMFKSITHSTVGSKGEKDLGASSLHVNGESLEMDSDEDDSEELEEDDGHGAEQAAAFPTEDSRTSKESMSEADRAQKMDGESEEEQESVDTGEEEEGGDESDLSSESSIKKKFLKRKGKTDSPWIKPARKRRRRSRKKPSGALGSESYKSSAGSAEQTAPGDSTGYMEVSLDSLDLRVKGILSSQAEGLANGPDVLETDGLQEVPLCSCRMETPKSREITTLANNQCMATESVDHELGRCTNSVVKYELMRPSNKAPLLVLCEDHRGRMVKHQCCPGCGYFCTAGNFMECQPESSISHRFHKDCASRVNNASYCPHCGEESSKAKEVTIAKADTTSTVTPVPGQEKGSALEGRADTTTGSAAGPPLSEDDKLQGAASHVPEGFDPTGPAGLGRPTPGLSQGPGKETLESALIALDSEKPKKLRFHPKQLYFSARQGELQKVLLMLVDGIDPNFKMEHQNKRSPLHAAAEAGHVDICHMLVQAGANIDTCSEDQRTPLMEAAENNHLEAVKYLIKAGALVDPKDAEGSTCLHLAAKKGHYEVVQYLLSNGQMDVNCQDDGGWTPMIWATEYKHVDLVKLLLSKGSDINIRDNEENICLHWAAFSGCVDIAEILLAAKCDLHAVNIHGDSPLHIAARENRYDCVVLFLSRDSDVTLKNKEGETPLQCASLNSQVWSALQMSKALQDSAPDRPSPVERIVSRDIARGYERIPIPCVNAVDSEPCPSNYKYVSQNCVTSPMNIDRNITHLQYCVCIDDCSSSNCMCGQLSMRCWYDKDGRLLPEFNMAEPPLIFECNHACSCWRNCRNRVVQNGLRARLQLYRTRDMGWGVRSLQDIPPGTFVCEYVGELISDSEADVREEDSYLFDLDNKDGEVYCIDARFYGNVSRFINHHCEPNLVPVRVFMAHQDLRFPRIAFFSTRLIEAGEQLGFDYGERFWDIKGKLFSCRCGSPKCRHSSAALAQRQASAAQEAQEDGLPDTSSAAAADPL
Kind of test: Inhibition of wild type recombinant human histone lysine methyltransferase GLP (951 to 1235 residues) expressed in Escherichia coli Rosetta BL21 DE3 PlysS at 10 uM using ARTKQTARKSTGGKA as substrate preincubated for 5 mins followed by substrate/SAM addition measured after 60 mins by MALDI-TOF MS analysis.

The target of test [2] is T1, Histone-lysine N-methyltransferase EHMT1 (Homo sapiens). Kind of test: Inhibition of wild type recombinant human histone lysine methyltransferase GLP (951 to 1235 residues) expressed in Escherichia coli Rosetta BL21 DE3 PlysS at 100 uM using ARTKQTARKSTGGKA as substrate preincubated for 5 mins followed by substrate/SAM addition measured after 60 mins by MALDI-TOF MS analysis.

For test [3], the target named is T2, Histone-lysine N-methyltransferase EHMT2 (Homo sapiens) (UniProt Q96KQ7).
T2 sequence (whole entry): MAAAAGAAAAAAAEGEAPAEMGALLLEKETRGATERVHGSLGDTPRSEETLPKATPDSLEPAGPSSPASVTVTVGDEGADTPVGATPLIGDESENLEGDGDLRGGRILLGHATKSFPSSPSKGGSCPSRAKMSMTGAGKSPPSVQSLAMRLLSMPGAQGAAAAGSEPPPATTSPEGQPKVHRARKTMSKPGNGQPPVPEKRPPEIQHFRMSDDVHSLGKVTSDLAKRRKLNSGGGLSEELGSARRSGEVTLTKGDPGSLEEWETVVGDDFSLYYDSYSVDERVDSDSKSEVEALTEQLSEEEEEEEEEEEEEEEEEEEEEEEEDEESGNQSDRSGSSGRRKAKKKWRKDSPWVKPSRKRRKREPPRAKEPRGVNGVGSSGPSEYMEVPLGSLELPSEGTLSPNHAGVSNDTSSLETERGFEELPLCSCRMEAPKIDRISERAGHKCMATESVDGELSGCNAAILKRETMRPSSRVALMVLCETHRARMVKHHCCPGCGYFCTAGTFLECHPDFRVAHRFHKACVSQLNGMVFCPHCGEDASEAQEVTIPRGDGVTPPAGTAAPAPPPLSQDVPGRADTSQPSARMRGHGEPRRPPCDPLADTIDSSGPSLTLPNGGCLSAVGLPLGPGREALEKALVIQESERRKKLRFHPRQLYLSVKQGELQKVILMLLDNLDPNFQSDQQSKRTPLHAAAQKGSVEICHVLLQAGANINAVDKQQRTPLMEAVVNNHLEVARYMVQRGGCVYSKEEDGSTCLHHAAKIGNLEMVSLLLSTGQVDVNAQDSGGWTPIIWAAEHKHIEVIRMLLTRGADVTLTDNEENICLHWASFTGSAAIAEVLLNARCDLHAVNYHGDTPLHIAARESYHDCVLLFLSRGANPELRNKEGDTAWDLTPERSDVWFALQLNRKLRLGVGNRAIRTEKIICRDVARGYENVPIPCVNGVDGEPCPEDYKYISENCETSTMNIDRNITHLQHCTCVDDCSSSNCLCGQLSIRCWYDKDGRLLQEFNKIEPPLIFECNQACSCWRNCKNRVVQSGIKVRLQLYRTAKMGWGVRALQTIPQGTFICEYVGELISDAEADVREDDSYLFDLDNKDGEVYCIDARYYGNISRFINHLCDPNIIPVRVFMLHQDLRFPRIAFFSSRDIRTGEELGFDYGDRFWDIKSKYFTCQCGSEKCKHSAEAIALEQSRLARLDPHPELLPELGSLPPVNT
The test is described as follows: Inhibition of wild type recombinant human histone lysine methyltransferase G9a (913 to 1193 residues) expressed in Escherichia coli Rosetta BL21 DE3 PlysS assessed as zinc ions ejection from Cys4-Zn finger at 100 uM by FluoZin-3 based fluorescence assay.

Test [4] concerns the target T2, Histone-lysine N-methyltransferase EHMT2 (Homo sapiens). Kind of test: Induction of wild type recombinant human histone lysine methyltransferase G9a (913 to 1193 residues) protein unfolding at 100 uM by circular dichroism analysis.
Test [5] concerns the target T1, Histone-lysine N-methyltransferase EHMT1 (Homo sapiens). The test is described as follows: Induction of wild type recombinant human histone lysine methyltransferase GLP (951 to 1235 residues) protein unfolding at 100 uM by circular dichroism analysis.
Test [6] shares this target. The test is described as follows: Inhibition of wild type recombinant human histone lysine methyltransferase GLP (951 to 1235 residues) expressed in Escherichia coli Rosetta BL21 DE3 PlysS assessed as zinc ions ejection from 3 types of Cys9-type Zn fingers at >25 uM after 1 hr by circular dichroism analysis.

The source of these data is ChEMBL document CHEMBL4184305, “Inhibition of histone lysine methyltransferases G9a and GLP by ejection of structural Zn(II)” (Bioorg Med Chem Lett, 2018).

Calls of active or inactive are those of the source. The rule behind the calls is not given here.

Take `CCN(CC)C(=S)SSC(=S)N(CC)CC`: in test [1], the inhibition result was “inactive”. Moreover, the inhibition in test [2] is above 50%. Also, the inhibition result in test [3] is “Active”. For the same molecule, the result in test [4] and in test [5] was Active.
For `O=c1c2ccccc2[se]n1-c1ccccc1` [EBSELEN], in test [1], the inhibition entry is “inactive”. Further, in test [2], the inhibition is above 50%. Besides, the inhibition result in test [3] and in test [6] was “Active” throughout. The result in test [4] and in test [5] was Active.
